{
  "source": "patent US8658357B2",
  "about": "“Orotate transporter encoding marker genes” (Novozymes A/S, priority 2004, dated 2014)",
  "key": {"[1]": {"system": "L. lactis NCDO712 and MG1363", "experiment": "Screening for FOA sensitivity by streaking on SA-glucose plates with FOA", "format": "cell-based, Lactococcus lactis ssp. cremoris", "description": "Lactococcal cultures were grown at 30° C. either in M17 broth (Terzaghi and Sandine, 1975) or in minimal SA-medium (Jensen and Hammer, 1993) supplemented with 0.5% and 1% glucose, respectively. E. coli strains were grown at 37° C. either in Luria-Bertani (LB) broth or in minimal ABTG medium (Clark and Maaløe, 1967). B. subtilis strains were grown at 37° C. either in LB medium or in minimal MM medium. Agar plates were made by adding […] agar to the broth medium. If necessary, the following supplements were added to the different media: orotate at 20 micro-g/ml, uracil at 20 micro-g/ml, 5-fluoroorotate (FOA) at 20 micro-g/ml, erythromycin at 5 micro-g/ml, chloramphenicol at 5 micro-g/ml for lactococci and 20 micro-g/ml for E. coli, ampicillin at 100 micro-g/ml.\nQIAGEN™ purified plasmid DNA of pED210 and pCI3440 was introduced into competent NCDO712 and MG1363 cells by electroporation, and transformants harboring either plasmid pED210 or pCI3440 were selected at 30° C. on SR plates supplemented with 5 micro-g/ml chloramphenicol. Transformants harboring either pED210 or pCI3440 were screened for FOA sensitivity by streaking them on SA-glucose plates with 20 micro-g/ml FOA, and incubation overnight at 30° C."}, "E. coli XL1-Blue": {"system": "E. coli XL1-Blue", "experiment": "Screening for fluoroorotate sensitivity by streaking on ABTG plates", "format": "cell-based, Escherichia coli", "description": "QIAGEN™-purified plasmid DNA of pED301 (ysbC), or pDG268 (negative control) was introduced into competent XL1-Blue cells by the heat shock procedure, and transformants harboring plasmid pED301 or pDG268 were selected at 37° C. on LB plates supplemented with 100 micro-g/ml ampicillin. Transformants were screened for fluoroorotate sensitivity by streaking them on ABTG plates without or with 20 micro-g/ml fluoroorotate and incubation overnight at 37° C."}, "[2]": {"system": "B. subtilis HH263 derived strains ED344 and ED348", "experiment": "FOA sensitivity by streaking on selective MM plates", "format": "cell-based, Bacillus subtilis", "description": "The resulting strains were denoted ED344 (HH263 amyE::pDG268) and ED348 (HH263 amyE::pED301). ED344 and ED348 were streaked on selective MM plates containing 5 micro-g/ml neomycine, one with 20 micro-g/ml FOA, and one without. The screening plates were incubated overnight at 37° C."}},
  "data": [
    {"smiles": "O=C(O)c1[nH]c(=O)[nH]c(=O)c1F", "note": "[FOA, 5-fluoroorotate]", "values": [
      {"measurement": "FOA resistance/sensitivity (growth)", "setting": "[1]; L. lactis strain ED79.1175 (MG1363 ΔpyrDa ΔpyrDb)", "value": "resistant"},
      {"measurement": "FOA resistance/sensitivity (growth)", "setting": "[1]; NCDO712 and MG1363 containing plasmid pED210 (ysbC), 20 micro-g/ml FOA, SA-glucose plates, overnight 30° C.", "value": "sensitive"},
      {"measurement": "FOA resistance/sensitivity (growth)", "setting": "[1]; NCDO712 and MG1363 containing vector pCI3440 (control), 20 micro-g/ml FOA, SA-glucose plates, overnight 30° C.", "value": "resistant"},
      {"measurement": "FOA resistance/sensitivity (growth)", "setting": "[1]; untransformed L. lactis NCDO712 and MG1363", "value": "resistant"},
      {"measurement": "FOA resistance/sensitivity (growth)", "setting": "E. coli XL1-Blue; XL1-Blue harbouring pED301 (ysbC), 20 micro-g/ml fluoroorotate, ABTG plates, overnight 37° C.", "value": "sensitive"},
      {"measurement": "FOA resistance/sensitivity (growth)", "setting": "E. coli XL1-Blue; untransformed E. coli XL1-Blue", "value": "resistant"},
      {"measurement": "FOA resistance/sensitivity (growth)", "setting": "[2]; ED344 (HH263 amyE::pDG268, control), 20 micro-g/ml FOA, MM plates, overnight 37° C.", "value": "resistant"},
      {"measurement": "FOA resistance/sensitivity (growth)", "setting": "[2]; ED348 (HH263 amyE::pED301, ysbC), 20 micro-g/ml FOA, MM plates, overnight 37° C.", "value": "sensitive"},
      {"measurement": "FOA resistance/sensitivity (growth)", "setting": "[2]; untransformed B. subtilis HH263 (168 trpC2)", "value": "resistant"}
    ]}
  ]
}
